Each structure is given as a SMILES string.

In this assay the target is T1, Full length human recombinant HDAC6 protein (Homo sapiens, UniProt Q9UBN7).
T1 construct: made in house
T1 sequence (Q9UBN7 1-1215): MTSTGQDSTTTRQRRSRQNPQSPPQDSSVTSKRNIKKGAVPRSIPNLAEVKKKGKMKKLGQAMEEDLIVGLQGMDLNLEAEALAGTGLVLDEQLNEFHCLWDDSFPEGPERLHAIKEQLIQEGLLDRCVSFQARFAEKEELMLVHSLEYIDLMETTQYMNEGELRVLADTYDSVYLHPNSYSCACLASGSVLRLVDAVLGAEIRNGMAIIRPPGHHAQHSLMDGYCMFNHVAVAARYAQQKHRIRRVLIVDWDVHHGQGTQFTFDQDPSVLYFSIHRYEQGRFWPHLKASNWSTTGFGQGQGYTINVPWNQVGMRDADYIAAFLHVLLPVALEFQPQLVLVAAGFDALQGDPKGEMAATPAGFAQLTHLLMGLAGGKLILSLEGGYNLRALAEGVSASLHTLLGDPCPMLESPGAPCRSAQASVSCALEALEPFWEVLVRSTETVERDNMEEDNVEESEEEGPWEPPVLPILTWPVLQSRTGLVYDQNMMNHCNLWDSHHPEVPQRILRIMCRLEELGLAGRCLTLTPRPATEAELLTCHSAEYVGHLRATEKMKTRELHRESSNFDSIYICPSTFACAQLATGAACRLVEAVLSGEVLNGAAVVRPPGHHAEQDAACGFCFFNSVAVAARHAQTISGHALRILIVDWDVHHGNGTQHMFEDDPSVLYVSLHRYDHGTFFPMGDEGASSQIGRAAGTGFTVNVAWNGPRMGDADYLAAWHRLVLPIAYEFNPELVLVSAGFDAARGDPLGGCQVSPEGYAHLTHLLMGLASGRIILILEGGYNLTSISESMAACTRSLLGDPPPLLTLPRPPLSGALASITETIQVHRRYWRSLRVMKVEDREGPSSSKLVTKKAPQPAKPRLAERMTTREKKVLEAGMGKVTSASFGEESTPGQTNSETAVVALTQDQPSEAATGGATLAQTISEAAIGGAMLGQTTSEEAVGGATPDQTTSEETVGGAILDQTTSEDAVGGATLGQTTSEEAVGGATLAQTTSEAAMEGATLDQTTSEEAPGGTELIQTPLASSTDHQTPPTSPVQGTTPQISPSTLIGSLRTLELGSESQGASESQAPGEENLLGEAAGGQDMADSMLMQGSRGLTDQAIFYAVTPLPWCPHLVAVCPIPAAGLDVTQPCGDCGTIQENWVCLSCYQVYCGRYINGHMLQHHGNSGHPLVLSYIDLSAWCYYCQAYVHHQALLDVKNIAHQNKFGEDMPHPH
The assay can be described thus: In vitro histone deacetylase assay: enzymatic HDAC6 electrophoretic mobility shift assay. The settings on record: peptide substrate RHKK(Ac)-NH2 2 μM, enzyme 1 nM, 25° C., 12 concentrations; read-out: HDAC6 activity range (IC50). It counts as biochemical. The protocol: The enzymatic HDAC6 assay was performed using electrophoretic mobility shift assay. Full length human recombinant HDAC6 protein was expressed in baculoviral system and purified by affinity chromatography. The enzymatic reactions were assembled in 384 well plates in a total volume of 25 μL in a reaction buffer composing: 100 mM HEPES, pH 7.5, 25 mM KCl, 0.1% bovine serum albumin, 0.01% Triton X-100, 1% DMSO (from compounds) 2 μM of the fluorescently labeled peptide substrate and enzyme. The enzyme was added at a final concentration of 1 nM. The peptide substrate RHKK(Ac)-NH2 was used. The compounds were tested at 12 concentrations spaced by 3× dilution intervals. Negative control samples (0%-inhibition in the absence of inhibitor) and positive control samples (100%-inhibition) were assembled in replicates of four in each assay plate. The reactions were incubated at 25° C. and quenched by the addition of 45 μL of termination buffer (100 mM HEPES, pH 7.5, 0.01% Triton X-100, 0.05% SDS).
The terminated assay plates were analyzed on LabChip® 3000 microfluidic electrophoresis instrument (Perkin Elmer/Caliper Life Sciences). The fluorescence intensity of the electrophoretically separated de-acetylated product and substrate peptide was measured. Activity in each sample was determined as the product to sum ratio (PSR): P/(S+P), where P is the peak height of the product peptide and S is the peak height of the substrate peptide. Percent inhibition (Pinh) is determined using the following equation:
Pinh=(PSR0%−PSRinh)/(PSR0%−PSR100%)*100, where PSRinh is the product sum ratio in the presence of inhibitor, PSR0% is the average product sum ration in the absence of inhibitor and PSR100% is the average product sum ratio in 100%-inhibition control samples. The IC50 values of inhibitors were determined by fitting the %-inhibition curves with 4 parameter dose-response model using XLfit 4 software.
As set forth in Table-7, below, IC50 values are defined as follows: IC50≤0.01 μM (+++); IC50>0.01 μM and ≤0.05 μM (++); IC50>0.05 μM (+).
In general terms: A gel shift assay detects complexes by their altered migration in electrophoresis.
On to `O=C(NO)c1ccc2c(c1)C[C@]1(CCN(Cc3ccccc3)C1)C2` [Compound I-27, (S)-1′-benzyl-N-hydroxy-1,3-dihydrospiro[indene-2,3′-pyrrolidine]-5-carboxamide], for which the 50% inhibitory concentration (IC50) (commonly the concentration needed to halve the response being measured) fell in the range of 10 to 50 nM.
Regarding `CC(=O)N1CC[C@]2(Cc3ccc(C(=O)NO)cc3C2)C1` [Compound I-28, (R)-1′-acetyl-N-hydroxy-1,3-dihydrospiro[indene-2,3′-pyrrolidine]-5-carboxamide], the half-maximal inhibitory concentration (IC50) lay within 10 to 50 nM.
Take `CC(=O)N1CC[C@@]2(Cc3ccc(C(=O)NO)cc3C2)C1` [Compound I-29, (S)-1′-acetyl-N-hydroxy-1,3-dihydrospiro[indene-2,3′-pyrrolidine]-5-carboxamide]: the IC50 was in the range of 10 to 50 nM.
Regarding `O=C(NO)c1ccc2c(c1)C[C@@]1(CCN(C(=O)c3ccccc3)C1)C2` [Compound I-30, (R)-1′-benzoyl-N-hydroxy-1,3-dihydrospiro[indene-2,3′-pyrrolidine]-5-carboxamide], the IC50 is at most 10 nM.
As to `O=C(NO)c1ccc2c(c1)C[C@]1(CCN(C(=O)c3ccccc3)C1)C2` [Compound I-31, (S)-1′-benzoyl-N-hydroxy-1,3-dihydrospiro[indene-2,3′-pyrrolidine]-5-carboxamide], the concentration for half-maximal inhibition (IC50) was at most 10 nM.
With `CN1CCC[C@]2(Cc3ccc(C(=O)NO)cc3C2)C1=O` [Compound I-32, (R)—N-hydroxy-1′-methyl-2′-oxo-1,3-dihydrospiro[indene-2,3′-piperidine]-5-carboxamide] the figure was 10 to 50 nM; with `CN1CCC[C@@]2(Cc3ccc(C(=O)NO)cc3C2)C1=O` [Compound I-33, (S)—N-hydroxy-1′-methyl-2′-oxo-1,3-dihydrospiro[indene-2,3′-piperidine]-5-carboxamide], 10 to 50 nM.
For the compound `O=C(NO)c1ccc2c(c1)C[C@@]1(CCCN(Cc3ccccc3)C1=O)C2` [Compound I-34, (R)-1′-benzyl-N-hydroxy-2′-oxo-1,3-dihydrospiro[indene-2,3′-piperidine]-5-carboxamide], the IC50 is at most 10 nM.
With `O=C(NO)c1ccc2c(c1)C[C@]1(CCCN(Cc3ccccc3)C1=O)C2` [Compound I-35, (S)-1′-benzyl-N-hydroxy-2′-oxo-1,3-dihydrospiro[indene-2,3′-piperidine]-5-carboxamide], the concentration for half-maximal inhibition (IC50) lay in the range of 10 to 50 nM.
The same measure for `O=C(NO)c1ccc2c(c1)C[C@@]1(CCCN(c3ccccc3)C1=O)C2` [Compound I-36, (R)—N-hydroxy-2′-oxo-1′-phenyl-1,3-dihydrospiro[indene-2,3′-piperidine]-5-carboxamide]: at most 10 nM; for `O=C(NO)c1ccc2c(c1)C[C@]1(CCCN(c3ccccc3)C1=O)C2` [Compound I-37, (S)—N-hydroxy-2′-oxo-1′-phenyl-1,3-dihydrospiro[indene-2,3′-piperidine]-5-carboxamide]: 10 to 50 nM.

The values above are taken from US12213969B2, “2-spiro-5- and 6-hydroxamic acid indanes as HDAC inhibitors” (Valo Health, Inc., priority 2016, dated 2025).
